The values that follow come from publication PMC12395297, “Bidirectional Modification of a Galbulimima Alkaloid Identifies Selective Opioid Ligands” (ACS Central Science, 2025).

Experiment [1] addresses T1, KOR (Homo sapiens, UniProt P41145). The experiment is described as follows: KOR affinity (pKi) of pyridyl GB18 analogs, Figure 1b. In kind it is binding. To be noted: footnote a.
Experiment [2] deals with T1, KOR. Kind of experiment: 35S-GTPγS binding in CHO-KOR cells. The experiment is classed as biochemical. The conditions noted are these: read-out: KOR Emax. For orientation: GTPγS is a poorly hydrolysed GTP analogue; its binding reports G protein activation.
Experiment [3] deals with T1, KOR. The experiment is described as follows: Inhibition of forskolin-stimulated cAMP accumulation (KOR agonism, HTRF). The experiment is classed as cell-based. (Changes in cAMP serve as a functional read-out for many G protein-coupled receptors.)
The next experiment concerns 320 GPCRs. Kind of experiment: GPCRome PRESTO-Tango screen across 320 GPCRs (PDSP). In kind it is cell-based.
Experiment [4] has as its target T1, KOR. Also on record: method as in earlier paper of the authors (Woo, Shenvi, Nature 2022). To be noted: antagonism; TANGO β-arrestin signaling, n = 3; ref earlier paper of the authors (Woo, Shenvi, Nature 2022); cited from earlier work.
The next experiment addresses MOR (Homo sapiens, UniProt P35372). Also on record: method as in earlier paper of the authors (Woo, Shenvi, Nature 2022). The conditions noted are these: antagonism; TANGO β-arrestin signaling, n = 3; ref earlier paper of the authors (Woo, Shenvi, Nature 2022); cited from earlier work.

“Also recorded” adds a separate entry of the source.

T1 sequence (P41145 whole entry): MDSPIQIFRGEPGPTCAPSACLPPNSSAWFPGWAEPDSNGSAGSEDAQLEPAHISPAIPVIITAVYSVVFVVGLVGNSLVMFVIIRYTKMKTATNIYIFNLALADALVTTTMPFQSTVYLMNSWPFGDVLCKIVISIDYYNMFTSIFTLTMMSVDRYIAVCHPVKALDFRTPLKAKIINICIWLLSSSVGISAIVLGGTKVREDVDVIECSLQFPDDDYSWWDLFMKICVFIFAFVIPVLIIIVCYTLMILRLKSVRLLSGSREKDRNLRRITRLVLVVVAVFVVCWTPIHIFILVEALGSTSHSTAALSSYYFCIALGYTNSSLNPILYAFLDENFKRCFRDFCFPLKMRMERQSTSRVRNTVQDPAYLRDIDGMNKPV
MOR, sequence (P35372 whole entry): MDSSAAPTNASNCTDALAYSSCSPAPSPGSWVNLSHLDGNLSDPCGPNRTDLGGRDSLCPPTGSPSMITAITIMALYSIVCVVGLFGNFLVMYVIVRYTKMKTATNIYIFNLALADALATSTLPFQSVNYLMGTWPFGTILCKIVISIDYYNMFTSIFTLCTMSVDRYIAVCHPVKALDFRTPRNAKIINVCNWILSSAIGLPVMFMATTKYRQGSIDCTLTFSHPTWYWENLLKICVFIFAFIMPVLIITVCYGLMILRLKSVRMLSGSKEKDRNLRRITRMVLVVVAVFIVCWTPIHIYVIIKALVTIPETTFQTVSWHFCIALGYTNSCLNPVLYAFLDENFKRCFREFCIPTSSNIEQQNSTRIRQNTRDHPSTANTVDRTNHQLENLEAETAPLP

Regarding `COC(=O)C1=CC23CCCCC2C2CC(c4cccc(C)n4)C(C)(O3)C12` (stereo not shown) [compound 2], at KOR [1], the Ki (commonly the dissociation constant of the complex between target and ligand, obtained from inhibition or displacement) is 29.5 nM. The Emax (commonly the greatest response seen or fitted, relative to the assay's reference) was 34% on KOR [2] and 56% at KOR [3] (read-out: KOR Emax). Besides, the EC50 (as a rule, the midpoint of the concentration-response curve) at KOR [3] (inhibition of forskolin-stimulated cAMP accumulation, Figure 4 and text) stood at 476 nM. Also, in the experiment on 320 GPCRs, the “GPCR selectivity in PRESTO-Tango agonist screen” value is listed as “highly selective partial agonist; also recorded: agonized KOR with high selectivity among 320 GPCRs”.

Take GB18: on KOR [4], the “KOR pIC50” value is 8. Moreover, the “MOR pIC50” value at MOR is 8.
